# Results reported in the supplement of paper PMC10307832.
# Tests used:
# Assay in all cases: relative viability (nuclei count vs DMSO), 5 days (fraction); higher = more cells survive
# HCC-827 = tested on: HCC-827
# In short: (§1)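 Each reported value is a median over duplicate plates. It expresses relative viability: treated-well nuclei count divided by vehicle-well nuclei count. Lung cancer cell lines in 1536-well plates were dosed by pin tool a day after seeding, alone with one drug or with a fixed anchor-drug dose plus five library-drug doses (not always all listed) in √10 steps, and nuclei were counted after 5 days.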
# HARA = tested on: HARA
# In short: as §1
# NCI-H1734 = tested on: NCI-H1734
# In short: as §1
# NCI-H647 = tested on: NCI-H647
# In short: as §1
# NCI-H1437 = tested on: NCI-H1437
# In short: as §1
# NCI-H2405 = tested on: NCI-H2405
# In short: as §1
# NCI-H1355 = tested on: NCI-H1355
# In short: as §1
# NCI-H522 = tested on: NCI-H522
# In short: as §1
# SK-MES-1 = tested on: SK-MES-1
# In short: as §1
# HCC-366 = tested on: HCC-366
# In short: as §1
# NCI-H2170 = tested on: NCI-H2170
# In short: as §1
# EKVX = tested on: EKVX
# In short: as §1
# NCI-H1993 = tested on: NCI-H1993
# In short: as §1
# NCI-H1395 = tested on: NCI-H1395
# In short: as §1
# NCI-H2342 = tested on: NCI-H2342
# In short: as §1
# LOU-NH91 = tested on: LOU-NH91
# In short: as §1
# NCI-H2087 = tested on: NCI-H2087
# In short: as §1
# SK-LU-1 = tested on: SK-LU-1
# In short: as §1
# NCI-H661 = tested on: NCI-H661
# In short: as §1
# NCI-H1792 = tested on: NCI-H1792
# In short: as §1
# NCI-H2009 = tested on: NCI-H2009
# In short: as §1
# BEN = tested on: BEN
# In short: as §1
compound,measurement,setting,value
COc1cc2nccc(Oc3ccc(NC(=O)Nc4cc(C)on4)c(Cl)c3)c2cc1OC [Tivozanib] + O=C(c1cc(Cc2n[nH]c(=O)c3ccccc23)ccc1F)N1CCN(C(=O)C2CC2)CC1 [Olaparib] (partner 8 µM),relative viability,HCC-827; first compound 0.005 µM,0.572
same,relative viability,HCC-827; first compound 0.01581 µM,0.719
same,relative viability,HCC-827; first compound 0.05 µM,0.623
same,relative viability,HCC-827; first compound 0.1581 µM,0.612
same,relative viability,HCC-827; first compound 0.5 µM,0.623
same,relative viability,HARA; first compound 0.005 µM,0.606
same,relative viability,HARA; first compound 0.01581 µM,1.07
same,relative viability,HARA; first compound 0.05 µM,0.763
same,relative viability,HARA; first compound 0.1581 µM,1.15
same,relative viability,HARA; first compound 0.5 µM,0.893
same,relative viability,NCI-H1734; first compound 0.005 µM,0.716
same,relative viability,NCI-H1734; first compound 0.01581 µM,0.6
same,relative viability,NCI-H1734; first compound 0.05 µM,0.743
same,relative viability,NCI-H1734; first compound 0.1581 µM,0.564
same,relative viability,NCI-H1734; first compound 0.5 µM,0.609
same,relative viability,NCI-H647; first compound 0.005 µM,0.505
same,relative viability,NCI-H647; first compound 0.01581 µM,0.529
same,relative viability,NCI-H647; first compound 0.05 µM,0.63
same,relative viability,NCI-H647; first compound 0.1581 µM,0.56
same,relative viability,NCI-H647; first compound 0.5 µM,0.437
same,relative viability,NCI-H1437; first compound 0.005 µM,0.613
same,relative viability,NCI-H1437; first compound 0.01581 µM,0.628
same,relative viability,NCI-H1437; first compound 0.05 µM,0.658
same,relative viability,NCI-H1437; first compound 0.1581 µM,0.613
same,relative viability,NCI-H1437; first compound 0.5 µM,0.584
same,relative viability,NCI-H2405; first compound 0.005 µM,0.831
same,relative viability,NCI-H2405; first compound 0.01581 µM,0.95
same,relative viability,NCI-H2405; first compound 0.05 µM,0.916
same,relative viability,NCI-H2405; first compound 0.1581 µM,1.01
same,relative viability,NCI-H2405; first compound 0.5 µM,0.669
same,relative viability,NCI-H1355; first compound 0.005 µM,0.732
same,relative viability,NCI-H1355; first compound 0.01581 µM,0.755
same,relative viability,NCI-H1355; first compound 0.05 µM,0.765
same,relative viability,NCI-H1355; first compound 0.1581 µM,0.672
same,relative viability,NCI-H1355; first compound 0.5 µM,0.753
same,relative viability,NCI-H522; first compound 0.005 µM,0.627
same,relative viability,NCI-H522; first compound 0.01581 µM,0.635
same,relative viability,NCI-H522; first compound 0.05 µM,0.651
same,relative viability,NCI-H522; first compound 0.1581 µM,0.591
same,relative viability,NCI-H522; first compound 0.5 µM,0.512
same,relative viability,SK-MES-1; first compound 0.005 µM,0.661
same,relative viability,SK-MES-1; first compound 0.01581 µM,0.623
same,relative viability,SK-MES-1; first compound 0.05 µM,0.772
same,relative viability,SK-MES-1; first compound 0.1581 µM,0.62
same,relative viability,SK-MES-1; first compound 0.5 µM,0.583
same,relative viability,HCC-366; first compound 0.005 µM,0.367
same,relative viability,HCC-366; first compound 0.01581 µM,0.365
same,relative viability,HCC-366; first compound 0.05 µM,0.37
same,relative viability,HCC-366; first compound 0.1581 µM,0.363
same,relative viability,HCC-366; first compound 0.5 µM,0.352
same,relative viability,NCI-H2170; first compound 0.005 µM,0.484
same,relative viability,NCI-H2170; first compound 0.01581 µM,0.596
same,relative viability,NCI-H2170; first compound 0.05 µM,0.642
same,relative viability,NCI-H2170; first compound 0.5 µM,0.523
same,relative viability,EKVX; first compound 0.005 µM,0.801
same,relative viability,EKVX; first compound 0.01581 µM,0.881
same,relative viability,EKVX; first compound 0.05 µM,0.908
same,relative viability,EKVX; first compound 0.1581 µM,0.922
same,relative viability,EKVX; first compound 0.5 µM,0.725
same,relative viability,NCI-H1993; first compound 0.005 µM,0.849
same,relative viability,NCI-H1993; first compound 0.01581 µM,1.03
same,relative viability,NCI-H1993; first compound 0.05 µM,0.988
same,relative viability,NCI-H1993; first compound 0.1581 µM,0.692
same,relative viability,NCI-H1993; first compound 0.5 µM,1.1
same,relative viability,NCI-H1395; first compound 0.005 µM,0.421
same,relative viability,NCI-H1395; first compound 0.01581 µM,0.443
same,relative viability,NCI-H1395; first compound 0.05 µM,0.476
same,relative viability,NCI-H1395; first compound 0.1581 µM,0.484
same,relative viability,NCI-H1395; first compound 0.5 µM,0.422
same,relative viability,NCI-H2342; first compound 0.005 µM,0.433
same,relative viability,NCI-H2342; first compound 0.01581 µM,0.404
same,relative viability,NCI-H2342; first compound 0.05 µM,0.465
same,relative viability,NCI-H2342; first compound 0.5 µM,0.42
same,relative viability,LOU-NH91; first compound 0.005 µM,0.894
same,relative viability,LOU-NH91; first compound 0.01581 µM,0.902
same,relative viability,LOU-NH91; first compound 0.05 µM,0.932
same,relative viability,LOU-NH91; first compound 0.1581 µM,0.891
same,relative viability,LOU-NH91; first compound 0.5 µM,0.871
same,relative viability,NCI-H2087; first compound 0.005 µM,0.542
same,relative viability,NCI-H2087; first compound 0.01581 µM,0.51
same,relative viability,NCI-H2087; first compound 0.05 µM,0.652
same,relative viability,NCI-H2087; first compound 0.1581 µM,0.683
same,relative viability,NCI-H2087; first compound 0.5 µM,0.713
same,relative viability,SK-LU-1; first compound 0.005 µM,0.465
same,relative viability,SK-LU-1; first compound 0.01581 µM,0.474
same,relative viability,SK-LU-1; first compound 0.05 µM,0.528
same,relative viability,SK-LU-1; first compound 0.1581 µM,0.384
same,relative viability,SK-LU-1; first compound 0.5 µM,0.464
same,relative viability,NCI-H661; first compound 0.005 µM,0.703
same,relative viability,NCI-H661; first compound 0.01581 µM,0.708
same,relative viability,NCI-H661; first compound 0.05 µM,0.741
same,relative viability,NCI-H661; first compound 0.1581 µM,0.77
same,relative viability,NCI-H661; first compound 0.5 µM,0.699
same,relative viability,NCI-H1792; first compound 0.005 µM,0.313
same,relative viability,NCI-H1792; first compound 0.01581 µM,0.46
same,relative viability,NCI-H1792; first compound 0.05 µM,0.516
same,relative viability,NCI-H1792; first compound 0.5 µM,0.294
same,relative viability,NCI-H2009; first compound 0.005 µM,0.655
same,relative viability,NCI-H2009; first compound 0.01581 µM,0.703
same,relative viability,NCI-H2009; first compound 0.05 µM,0.751
same,relative viability,NCI-H2009; first compound 0.1581 µM,0.714
same,relative viability,NCI-H2009; first compound 0.5 µM,0.542
same,relative viability,BEN; first compound 0.005 µM,0.979
same,relative viability,BEN; first compound 0.01581 µM,1.09
same,relative viability,BEN; first compound 0.05 µM,1.07
same,relative viability,BEN; first compound 0.1581 µM,1.03
same,relative viability,BEN; first compound 0.5 µM,0.888
